Measured values reported in patent publication US20260207720A1, “COMPOSITIONS AND METHODS FOR TREATING FUNGAL INFECTIONS” (MUCPharm Pty Ltd, priority 2022, published 2026).
Values after ≈ are worked out from the molar mass of the structure shown. Like-named read-outs stand apart in the source and are kept apart here.

Key:
Type in all cases: cell-based
[1] = tested on: Candida glabrata (clinical isolate); test: Broth dilution susceptibility test, MIC and percent growth (Example 5); details: for MIC: 24 hours, 625 nm
Method: These experiments were conducted to determine the effect of BromAc alone and in combination with existing antifungal drugs against Candida glabrata (clinical isolate).
A. Preparation of inoculum: • 1. Candida glabrata was grown on Sabouraud dextrose agar (SDA) at 37° C. for 24-48 hrs. • 2. Following this, 5 colonies of 1 mm diameter were picked and suspended in 5 mL sterile saline (0.9% saline) and vortexed for 15 seconds. • 3. Working suspension is prepared as a 1:100 dilution from stock suspension with RPMI 1640 culture medium. • 4. The cell density is adjusted with a spectrophotometer to the transmittance produced by a 0.5 McFarland standard (0.08 to 0.1) OD at 625 nm wavelength.
• 1. For Bromelain, a stock concentration of 1 mg/ml Bromelain solution was prepared in RPMI media and diluted to test concentrations of 62.4, 31.2, 15.6 and 7.8 μg/ml in RPMI 1640 media. • 2. Acetylcysteine stock concentration is 200 mg/ml, diluted to 40, 20, 10, and 5 mg/ml concentrations in RPMI 1640 medium. • 3. These concentrations are prepared at 2× of the required concentrations in the final assay plate.
Antifungal stock concentrations are as follows— • 1. Amphotericin B, Stock concentration: 250 μg/ml in water. • 2. Posaconazole, Original concentration: 300 mg in 16.7 ml, Working stock concentration: 1 mg/ml in DMSO. • 3. Fluconazole, Original concentration: 100 mg in 50 ml, Working stock concentration: 1 mg/ml in DMSO. • 4. The final concentration was prepared in RPMI 1640 media and concentrations range was 0.01-0.5 μg/mL for amphotericin B, 0.01-2 μg/mL for posaconazole and 0.01-64 μg/mL for fluconazole. • 5. These concentrations were prepared at 2× of the required concentrations in the final assay plate.
• 1. Wells of the 96-well plates were inoculated with appropriate concentrations and volumes of drugs. • 2. Sterility control and growth controls are included in each plate. • 3. Each 96-well plate (except the control wells) contains 100 μL of double strength (twice the final antifungal drug) concentrations. • 4. 100 μL of the fungal suspension is added to 96-well plates (except the sterility control wells). • 5. The growth control wells contained 100 μL of sterile drug-free medium and 100 μL of inoculum suspension, while the sterility control wells contained 200 μl of sterile drug-free medium. • 6. Plates are then incubated at 37° C. and read at 625,430, and 530 nm wavelengths. • 7. Data from 24 hours and absorbance at 625 nm were used for analysis.

Rhizopus arrhizus = test: Chequerboard broth microdilution antifungal susceptibility testing (MIC); details: for isolates with 10× increase: Rhizopus Arrhizus, antifungal with BromAc; for MIC / Observed inhibitory effect: Rhizopus arrhizus; for Observed inhibitory effect: antifungal in combination with BromAc (5 mg/ml Acetylcysteine+12.5 μg/ml Bromelain) vs alone
Method: (§1) Unless otherwise described, fungal cultures were grown on potato dextrose agar plates at 35° C. until mature (appearance of conidia) and used to prepare suspensions in sterile water. […] These suspensions were then added in equal volume to solutions containing the candidate species described above and incubated at 35° C. for 24 hr. Plates were then analysed for fungal growth inhibition and MIC values determined. […] [MICA (combined)/MICA]+[MICB (combined)/MICB] MICA (combined) is the MIC of drug A when both drugs (i.e. drug A and drug B) are present and MICA is the MIC of drug A used in isolation. Similarly, MICB (combined) is the MIC of drug B when both drugs are present and MICB is the MIC of drug B used in isolation.

Rhizopus microsporus = test: as above; details: for isolates with more than 10× increase: Rhizopus microspores, antifungal with BromAc; for MIC / Observed inhibitory effect: Rhizopus microsporus; for Observed inhibitory effect: antifungal in combination with BromAc (5 mg/ml Acetylcysteine+12.5 μg/ml Bromelain) vs alone
Method: as §1

[2] = Rhizopus arrhizus (80-21-015-4777), drug alone, read-out: MIC
[3] = eight R. arrhizus strains, read-out: MIC, average over the strains
[4] = isolate R. archizus 1, BromAc at constant concentration where combined, read-out: MIC
[5] = isolate R. archizus 2, BromAc at constant concentration where combined, read-out: MIC
[6] = isolate R. archizus 3, BromAc at constant concentration where combined, read-out: MIC
[7] = isolate R. archizus 8, BromAc at constant concentration where combined, read-out: MIC
[8] = isolate R. arrhizus 4, BromAc at constant concentration where combined, read-out: MIC
[9] = isolate R. arrhizus 5, BromAc at constant concentration where combined, read-out: MIC
[10] = isolate R. arrhizus 6, BromAc at constant concentration where combined, read-out: MIC
[11] = isolate R. arrhizus 7, BromAc at constant concentration where combined, read-out: MIC
[12] = Rhizopus microsporus (80-21-006-5340), drug alone, read-out: MIC
[13] = eight R. microsporus strains, read-out: MIC, average over the strains
[14] = isolate R. microsporus 1, BromAc at constant concentration where combined, read-out: MIC
[15] = isolate R. microsporus 2, BromAc at constant concentration where combined, read-out: MIC
[16] = isolate R. microsporus 3, BromAc at constant concentration where combined, read-out: MIC
[17] = isolate R. microsporus 4, BromAc at constant concentration where combined, read-out: MIC
[18] = isolate R. microsporus 5, BromAc at constant concentration where combined, read-out: MIC
[19] = isolate R. microsporus 6, BromAc at constant concentration where combined, read-out: MIC
[20] = isolate R. microsporus 7, BromAc at constant concentration where combined, read-out: MIC
[21] = isolate R. microsporus 8, BromAc at constant concentration where combined, read-out: MIC

For `C[C@@H]1[C@H](O)[C@@H](C)/C=C/C=C/C=C/C=C/C=C/C=C/C=C/[C@H](O[C@@H]2O[C@H](C)[C@@H](O)[C@H](N)[C@@H]2O)C[C@@H]2O[C@](O)(C[C@@H](O)C[C@@H](O)[C@H](O)CC[C@@H](O)C[C@@H](O)CC(=O)O[C@H]1C)C[C@H](O)[C@H]2C(=O)O` [Amphotericin B], which MIC ([1]; Nakaseomyces glabratus, measured at 90% growth inhibition) is on record?
Its MIC is 1 µg/mL.

And the “isolates with 10× increase” value (Rhizopus arrhizus)?
The value was 8 of 8.

And the MIC (Rhizopus arrhizus; [2])?
Its MIC is 0.5 µg/mL (≈ 0.541 µM).

What about the MIC (Rhizopus arrhizus; [3]) of the same compound?
The MIC was 0.6 µg/mL (≈ 0.649 µM).

What about the MIC (Rhizopus arrhizus; [4]) of the same compound?
Its MIC is 1 µg/mL.

What about the MIC (Rhizopus arrhizus; [5]) of the same compound?
Its MIC is 0.5 µg/mL.

What about the MIC (Rhizopus arrhizus; [6]) of the same compound?
Its MIC is 1 µg/mL.

And the MIC (Rhizopus arrhizus; [7])?
Its MIC is 0.5 µg/mL.

What about the MIC (Rhizopus arrhizus; [8]) of the same compound?
Its MIC is 0.5 µg/mL.

And the MIC (Rhizopus arrhizus; [9])?
The MIC was 0.5 µg/mL.

And the MIC (Rhizopus arrhizus; [10])?
The MIC was 1 µg/mL.

And the MIC (Rhizopus arrhizus; [11])?
The MIC was 0.5 µg/mL.

And the Observed inhibitory effect (Rhizopus arrhizus)?
The Observed inhibitory effect was “Strong (Strong = 5-10x (or greater) inhibitory effect)”.

What about the “effect on fungal culture (in words)” value (Rhizopus arrhizus; alone at 0.25 mg/L) of the same compound?
Its value is “not effective”.

And the “Amphotericin concentration at which complete inhibition was seen” value (Rhizopus arrhizus; combined with 25 μg/mL of bromelain)?
The value was 0.3 mg/L.

What about the “MICs, range over the strains” value (Rhizopus arrhizus; eight R. arrhizus strains) of the same compound?
Its value is 0.25 to 1 µg/mL.

What about the “isolates with more than 10× increase” value (Rhizopus microsporus) of the same compound?
The value was 9 of 10.

And the MIC (Rhizopus microsporus; [12])?
Its MIC is 0.5 µg/mL (≈ 0.541 µM).

And the MIC (Rhizopus microsporus; [13])?
Its MIC is 0.7 µg/mL (≈ 0.758 µM).

And the MIC (Rhizopus microsporus; [14])?
The MIC was 1 µg/mL.

What about the MIC (Rhizopus microsporus; [15]) of the same compound?
Its MIC is 1 µg/mL.

And the MIC (Rhizopus microsporus; [16])?
Its MIC is 0.25 µg/mL.

What about the MIC (Rhizopus microsporus; [17]) of the same compound?
Its MIC is 0.5 µg/mL.

And the MIC (Rhizopus microsporus; [18])?
The MIC was 0.5 µg/mL.

What about the MIC (Rhizopus microsporus; [19]) of the same compound?
Its MIC is 0.5 µg/mL.

And the MIC (Rhizopus microsporus; [20])?
The MIC was 0.5 µg/mL.

And the MIC (Rhizopus microsporus; [21])?
The MIC was 0.5 µg/mL.

What about the Observed inhibitory effect (Rhizopus microsporus) of the same compound?
Its Observed inhibitory effect is “Strong (Strong = 5-10x (or greater) inhibitory effect)”.

And the “effect on fungal culture (in words)” value (Rhizopus microsporus; alone at 0.25 mg/L)?
The value was “not effective”.

And the “MICs, range over the strains” value (Rhizopus microsporus; eight R. microsporus strains)?
Its value is 0.5 to 1 µg/mL.

Which MIC ([1]; Nakaseomyces glabratus, 50% growth inhibition) does the source give for `CC[C@@H]([C@H](C)O)n1ncn(-c2ccc(N3CCN(c4ccc(OC[C@@H]5CO[C@@](Cn6cncn6)(c6ccc(F)cc6F)C5)cc4)CC3)cc2)c1=O` [Posaconazole] here?
The MIC was 2 µg/mL.

What about the inhibition at 2 µg/mL ([1]; Nakaseomyces glabratus, at 2 μg/ml, read-out: decline in C. glabrata viability over the growth control) of the same compound?
The inhibition at 2 µg/mL was 25%.

And the “effect on C. glabrata viability / growth (in words)” value ([1]; at the concentrations tested, FIGS. 3-7)?
The value was “weaker antifungal effect”.

What about the “effect at lower concentration compared to growth control (in words)” value ([1]; concentrations lower than the MIC) of the same compound?
Its value is “slight decline”.

And the “isolates with 10× increase” value (Rhizopus arrhizus)?
Its value is 7 of 8.

And the MIC (Rhizopus arrhizus; [2])?
The MIC was 0.5 µg/mL (≈ 0.713 µM).

What about the MIC (Rhizopus arrhizus; [3]) of the same compound?
Its MIC is 0.8 µg/mL (≈ 1.14 µM).

What about the MIC (Rhizopus arrhizus; [4]) of the same compound?
The MIC was 1 µg/mL.

What about the MIC (Rhizopus arrhizus; [5]) of the same compound?
Its MIC is 1 µg/mL.

And the MIC (Rhizopus arrhizus; [6])?
Its MIC is 0.25 µg/mL.

What about the MIC (Rhizopus arrhizus; [7]) of the same compound?
Its MIC is 0.25 µg/mL.

And the MIC (Rhizopus arrhizus; [8])?
Its MIC is 0.25 µg/mL.

And the MIC (Rhizopus arrhizus; [9])?
The MIC was 0.25 µg/mL.

What about the MIC (Rhizopus arrhizus; [10]) of the same compound?
The MIC was 0.5 µg/mL.

What about the MIC (Rhizopus arrhizus; [11]) of the same compound?
Its MIC is 0.25 µg/mL.

What about the Observed inhibitory effect (Rhizopus arrhizus) of the same compound?
The Observed inhibitory effect was “Strong (Strong = 5-10x (or greater) inhibitory effect)”.

What about the “MICs, range over the strains” value (Rhizopus arrhizus; eight R. arrhizus strains) of the same compound?
The value was 0.25 to 1 µg/mL.

And the “isolates with more than 10× increase” value (Rhizopus microsporus)?
Its value is 9 of 10.

What about the MIC (Rhizopus microsporus; [12]) of the same compound?
The MIC was 1 µg/mL (≈ 1.43 µM).

What about the MIC (Rhizopus microsporus; [13]) of the same compound?
The MIC was 0.5 µg/mL (≈ 0.713 µM).

And the MIC (Rhizopus microsporus; [14])?
The MIC was 1 µg/mL.

And the MIC (Rhizopus microsporus; [15])?
Its MIC is 1 µg/mL.

And the MIC (Rhizopus microsporus; [16])?
Its MIC is 0.25 µg/mL.

What about the MIC (Rhizopus microsporus; [17]) of the same compound?
Its MIC is 0.25 µg/mL.

And the MIC (Rhizopus microsporus; [18])?
The MIC was 0.25 µg/mL.

And the MIC (Rhizopus microsporus; [19])?
The MIC was 0.25 µg/mL.

And the MIC (Rhizopus microsporus; [20])?
Its MIC is 0.25 µg/mL.

What about the MIC (Rhizopus microsporus; [21]) of the same compound?
The MIC was 0.25 µg/mL.

And the Observed inhibitory effect (Rhizopus microsporus)?
Its Observed inhibitory effect is “Strong (Strong = 5-10x (or greater) inhibitory effect)”.

What about the “MICs, range over the strains” value (Rhizopus microsporus; eight R. microsporus strains) of the same compound?
Its value is 0.25 to 1 µg/mL.
